According to US6737383B1, “Herbicidal oxadiazolidines” (priority 1999, dated 2004):

Key:
[1] = tested on: bamyardgrass; test: Test B flood test barnyardgrass; format: in vivo, Echinochloa crus-galli
Method in brief: (§1)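 Flood test on plants grown to the 2-leaf stage; treated plants kept in greenhouse twelve to sixteen days, then visually rated against controls on a 0 (no effect) to 10 (complete control) scale.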

[2] = tested on: wild oat; test: Test B pre/postemergence wild oat; format: in vivo, Avena fatua; conditions: for Plant response rating, Wild oats: scale of 0 to 10 where 0 is no effect and 10 is complete control
Method in brief: (§2)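 Herbicidal effect was estimated by eye on a ten-point control scale after plants spent twelve to sixteen days in a greenhouse following soil or foliar treatment. Foliar sprays targeted plants at one to four leaves; all doses were formulated in a non-phytotoxic solvent with surfactant.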

[3] = tested on: pigweed; test: Test B pre/postemergence pigweed; format: in vivo, Amaranthus retroflexus; conditions: for Plant response rating, Redroot pigweed: scale of 0 to 10 where 0 is no effect and 10 is complete control
Method in brief: as §2

[4] = tested on: morningglory; test: Test B pre/postemergence morningglory; format: in vivo, Ipomoea hederacea; conditions: for Plant response rating, Morningglory: scale of 0 to 10 where 0 is no effect and 10 is complete control
Method in brief: as §2

[5] = tested on: cocklebur; test: Test B pre/postemergence cocklebur; format: in vivo, Xanthium strumarium
Method in brief: as §2

[6] = tested on: rice; test: Test B flood test rice; format: in vivo, Oryza sativa
Method in brief: as §1

[7] = tested on: velvetleaf; test: Test B pre/postemergence velvetleaf; format: in vivo, Abutilon theophrasti; conditions: for Plant response rating, Velvetleaf: scale of 0 to 10 where 0 is no effect and 10 is complete control
Method in brief: as §2

[8] = tested on: giant foxtail; test: Test B pre/postemergence giant foxtail; format: in vivo, Setaria faberii
Method in brief: as §2

[9] = tested on: wheat; test: Test B pre/postemergence wheat; format: in vivo, Triticum aestivum; conditions: for Plant response rating, Wheat: scale of 0 to 10 where 0 is no effect and 10 is complete control
Method in brief: as §2

[10] = tested on: blackgrass; test: Test B pre/postemergence blackgrass; format: in vivo, Alopecurus myosuroides
Method in brief: as §2

[11] = tested on: soybean; test: Test B pre/postemergence soybean; format: in vivo, Glycine max; conditions: for Plant response rating, Soybean: scale of 0 to 10 where 0 is no effect and 10 is complete control
Method in brief: as §2

[12] = tested on: crabgrass; test: Test B pre/postemergence crabgrass; format: in vivo, Digitaria sanguinalis
Method in brief: as §2

[13] = tested on: duck salad; test: Test B flood test duck salad; format: in vivo, Heteranthera limosa
Method in brief: as §1

[14] = tested on: sugar beet; test: Test B pre/postemergence sugar beet; format: in vivo, Beta vulgaris; conditions: for Plant response rating, Sugarbeets: scale of 0 to 10 where 0 is no effect and 10 is complete control
Method in brief: as §2

[15] = tested on: corn; test: Test B pre/postemergence corn; format: in vivo, Zea mays
Method in brief: as §2

[16] = tested on: surinam grass; test: Test B pre/postemergence surinam grass; format: in vivo, Brachiaria decumbens
Method in brief: as §2

[17] = Rate 62 g/ha, flood test species, Pre-emergence, visual evaluation after twelve to sixteen days
[18] = Rate 125 g/ha, under heading Pre-emergence, flood test species, visual evaluation after twelve to sixteen days
[19] = Rate 250 g/ha, Pre-emergence (flood test species), scale 0 to 10, 0 is no effect, 10 is complete control
[20] = Rate 500 g/ha, Pre-emergence, flood test species, scale 0 to 10 (0 no effect, 10 complete control)
[21] = Postemergence, Rate 250 g/ha, scale 0 to 10
[22] = Preemergence, Rate 250 g/ha, scale 0 to 10, 0 is no effect, 10 is complete control
[23] = Preemergence, Rate 500 g/ha, scale 0 to 10, 0 is no effect, 10 is complete control
[24] = Rate 62 g/ha, Postemergence, scale 0 to 10 (0 no effect, 10 complete control)
[25] = Rate 125 g/ha, Postemergence, scale 0 to 10, 0 is no effect, 10 is complete control
[26] = Postemergence, Rate 500 g/ha, scale of 0 to 10 where 0 is no effect and 10 is complete control
[27] = Preemergence, Rate 62 g/ha, scale of 0 to 10 where 0 is no effect and 10 is complete control
[28] = Preemergence, Rate 125 g/ha, scale of 0 to 10 where 0 is no effect and 10 is complete control

COC(OC)C(C)n1c(=O)on(C(=O)N(c2ccc(F)cc2F)C(C)C)c1=O (stereo not shown) [Compound 472]
Plant response rating, Barnyardgrass (0 to 10 scale, 0 is no effect, 10 is complete control) [1, 17]: 0
Barnyardgrass plant response rating (0 to 10 scale, 0 is no effect, 10 is complete control) [1, 18]: 0
Barnyardgrass plant response rating [1, 19]: 0
Barnyardgrass plant response rating [1, 20]: 0
Wild oats plant response rating [2, 21]: 0
Plant response rating, Wild oats ([2]; Preemergence, Rate 62 g/ha): 2
Plant response rating, Wild oats ([2]; Preemergence, Rate 125 g/ha): 5
Wild oats plant response rating [2, 22]: 8
Wild oats plant response rating [2, 23]: 10
Wild oats plant response rating [2, 24]: 0
Wild oats plant response rating [2, 25]: 0
Redroot pigweed plant response rating [3, 21]: 3
Plant response rating, Redroot pigweed ([3]; Preemergence, Rate 62 g/ha): 10
Plant response rating, Redroot pigweed ([3]; Preemergence, Rate 125 g/ha): 10
Redroot pigweed plant response rating [3, 22]: 10
Redroot pigweed plant response rating [3, 23]: 10
Redroot pigweed plant response rating [3, 24]: 0
Redroot pigweed plant response rating [3, 25]: 2
Morningglory plant response rating [4, 21]: 4
Plant response rating, Morningglory ([4]; Preemergence, Rate 62 g/ha): 0
Plant response rating, Morningglory ([4]; Preemergence, Rate 125 g/ha): 0
Morningglory plant response rating [4, 22]: 0
Morningglory plant response rating [4, 23]: 5
Morningglory plant response rating [4, 24]: 3
Morningglory plant response rating [4, 25]: 3
Cocklebur plant response rating [5, 21]: 0
Cocklebur plant response rating [5, 26]: 1
Plant response rating, Cocklebur [5, 27]: 0
Plant response rating, Cocklebur [5, 28]: 0
Cocklebur plant response rating [5, 22]: 0
Cocklebur plant response rating [5, 23]: 2
Cocklebur plant response rating [5, 24]: 0
Cocklebur plant response rating [5, 25]: 0
Plant response rating, Rice (0 to 10 scale, 0 is no effect, 10 is complete control) [6, 17]: 0
Rice plant response rating (0 to 10 scale, 0 is no effect, 10 is complete control) [6, 18]: 0
Rice plant response rating [6, 19]: 0
Rice plant response rating [6, 20]: 0
Velvetleaf plant response rating [7, 21]: 2
Plant response rating, Velvetleaf ([7]; Preemergence, Rate 62 g/ha): 1
Plant response rating, Velvetleaf ([7]; Preemergence, Rate 125 g/ha): 3
Velvetleaf plant response rating [7, 22]: 3
Velvetleaf plant response rating [7, 23]: 7
Velvetleaf plant response rating [7, 24]: 0
Velvetleaf plant response rating [7, 25]: 0
Giant foxtail plant response rating [8, 21]: 8
Giant foxtail plant response rating [8, 26]: 8
Plant response rating, Giant foxtail [8, 27]: 10
Plant response rating, Giant foxtail [8, 28]: 10
Giant foxtail plant response rating [8, 22]: 10
Giant foxtail plant response rating [8, 23]: 10
Giant foxtail plant response rating [8, 24]: 7
Giant foxtail plant response rating [8, 25]: 7
Wheat plant response rating [9, 21]: 0
Plant response rating, Wheat ([9]; Preemergence, Rate 62 g/ha): 0
Plant response rating, Wheat ([9]; Preemergence, Rate 125 g/ha): 0
Wheat plant response rating [9, 22]: 0
Wheat plant response rating [9, 23]: 0
Wheat plant response rating [9, 24]: 0
Wheat plant response rating [9, 25]: 0
Blackgrass plant response rating [10, 21]: 2
Blackgrass plant response rating [10, 26]: 8
Plant response rating, Blackgrass [10, 27]: 9
Plant response rating, Blackgrass [10, 28]: 9
Blackgrass plant response rating [10, 22]: 10
Blackgrass plant response rating [10, 23]: 10
Blackgrass plant response rating [10, 24]: 0
Blackgrass plant response rating [10, 25]: 0
Soybean plant response rating [11, 21]: 2
Plant response rating, Soybean ([11]; Preemergence, Rate 62 g/ha): 0
Plant response rating, Soybean ([11]; Preemergence, Rate 125 g/ha): 0
Soybean plant response rating [11, 22]: 0
Soybean plant response rating [11, 23]: 3
Soybean plant response rating [11, 24]: 2
Soybean plant response rating [11, 25]: 2
Crabgrass plant response rating [12, 21]: 8
Crabgrass plant response rating [12, 26]: 8
Plant response rating, Crabgrass [12, 27]: 9
Plant response rating, Crabgrass [12, 28]: 9
Crabgrass plant response rating [12, 22]: 10
Crabgrass plant response rating [12, 23]: 10
Crabgrass plant response rating [12, 24]: 7
Crabgrass plant response rating [12, 25]: 7
Plant response rating, Ducksalad (0 to 10 scale, 0 is no effect, 10 is complete control) [13, 17]: 0
Ducksalad plant response rating (0 to 10 scale, 0 is no effect, 10 is complete control) [13, 18]: 0
Ducksalad plant response rating [13, 19]: 0
Ducksalad plant response rating [13, 20]: 0
Sugarbeets plant response rating [14, 21]: 0
Plant response rating, Sugarbeets ([14]; Preemergence, Rate 62 g/ha): 1
Plant response rating, Sugarbeets ([14]; Preemergence, Rate 125 g/ha): 2
Sugarbeets plant response rating [14, 22]: 3
Sugarbeets plant response rating [14, 23]: 6
Sugarbeets plant response rating [14, 24]: 0
Sugarbeets plant response rating [14, 25]: 0
Corn plant response rating [15, 21]: 0
Corn plant response rating [15, 26]: 3
Plant response rating, Corn [15, 27]: 0
Plant response rating, Corn [15, 28]: 0
Corn plant response rating [15, 22]: 2
Corn plant response rating [15, 23]: 7
Corn plant response rating [15, 24]: 0
Corn plant response rating [15, 25]: 0
B. signalgrass plant response rating ([16]; Postemergence, Rate 250 g/ha, scale 0 to 10, 0 no effect, 10 complete control): 2
B. signalgrass plant response rating [16, 26]: 5
Plant response rating, B. signalgrass [16, 27]: 3
Plant response rating, B. signalgrass [16, 28]: 9
B. signalgrass plant response rating [16, 22]: 9
B. signalgrass plant response rating [16, 23]: 10
B. signalgrass plant response rating [16, 24]: 0
B. signalgrass plant response rating [16, 25]: 0
